One assay relates to tubulin. As to conditions: cited from earlier work.
The subject of assay [1] is human lymphoma cell lines. As to conditions: cited from earlier work.
Assay [2] relates to P388 lymphocytic leukemia (PS system) cell line. As to conditions: cited from earlier work.
The test system of the next assay is A498 (renal cancer). Nature of the assay: in vitro cytotoxicity, cultured cancer cell panel: A498. It is filed as cell-based, Human. As to conditions: for GI-50: A498, renal, 48 hours; for LC-50 / TGI: A498; for LC-50: -50% growth; for TGI: total growth inhibition (0% growth). The procedure:
(§1) Compounds prepared according to Examples 1-14 above were evaluated for in vitro cytotoxicity against a panel of cultured cancer cells, including the cell lines OVCAR-3 (ovarian cancer), SF-295 (central nervous system), A498 (renal cancer), NCI-H460 (non-small lung carcinoma), KM20L2 (colon cancer) and SK-MEL-5 (melanoma). For each cell line, each compound was tested at 5 concentrations, 100 μg/mL, 10 μg/mL, 1 μg/mL, 0.1 μg/mL and 0.01 μg/mL. Percent growth values were calculated for each concentration, and the two or three concentrations with growth values above, below or near 50% growth (relative to control) were used to calculate the ED50 value using a linear regression calculation. In cases in which 50% growth inhibition was not observed for any of the concentrations, the ED50 value was expressed as ED50 >100 μg/mL. If the growth inhibition was greater than 50% for each concentration, the ED50 was expressed as <0.01 μg/mL. Similar calculations were performed for total growth inhibition (TGI; 0% growth) and LC50 (-50% growth).
(§2) At the start of each experiment, cells from the in vitro cell culture were inoculated into tubes or microtiter plates. One set of control tubes/plates was immediately counted to determine the cell count at the beginning of the experiment. This is the "baseline count" or T0 reading. After 48 hours, a second set of control tubes/plates is analyzed to determine the control growth value. The growth or death of cells relative to the T0 value is used to define the percent growth.

Assay [3] relates to NCI-H460 (non-small lung carcinoma). Briefly: in vitro cytotoxicity, cultured cancer cell panel: NCI-H460. As to conditions: for GI-50: NCI-H460, lung-NSC, 48 hours; for LC-50 / TGI: NCI-H460; for LC-50: -50% growth; for TGI: total growth inhibition (0% growth). It counts as cell-based, Human. As to the method:
as §1, §2

In another assay the test system is KM20L2 (colon cancer). Nature of the assay: in vitro cytotoxicity, cultured cancer cell panel: KM20L2. It counts as cell-based, Human. As to conditions: for GI-50: KM20L2, colon, 48 hours; for LC-50 / TGI: KM20L2; for LC-50: -50% growth; for TGI: total growth inhibition (0% growth). The procedure: as §1, §2
The subject of the next assay is SK-MEL-5 (melanoma). Nature of the assay: in vitro cytotoxicity, cultured cancer cell panel: SK-MEL-5. As to conditions: for GI-50: SK-MEL-5, melanoma, 48 hours; for LC-50 / TGI: SK-MEL-5; for LC-50: -50% growth; for TGI: total growth inhibition (0% growth). It counts as cell-based, Human. The procedure:
as §1, §2

For assay [4], the system named is P-388 Lymphocytic Leukemia. Nature of the assay: Murine P-388 lymphocytic leukemia cell line inhibition. It is filed as cell-based. As to conditions: P-388 mouse leukemia.
The next assay has as its system OVCAR-3 (ovarian cancer). Briefly: in vitro cytotoxicity, cultured cancer cell panel: OVCAR-3. As to conditions: for GI-50: OVCAR-3, ovarian, 48 hours; for TGI / LC-50: OVCAR-3; for TGI: total growth inhibition (0% growth); for LC-50: -50% growth. It counts as cell-based, Human. The procedure: as §1, §2
For assay [5], the system named is SF-295 (central nervous system). Briefly: in vitro cytotoxicity, cultured cancer cell panel: SF-295. As to conditions: for GI-50: SF-295, CNS, 48 hours; for LC-50 / TGI: SF-295; for LC-50: -50% growth; for TGI: total growth inhibition (0% growth). It counts as cell-based, Human. The procedure:
as §1, §2

Take Dolastatin 10: in the assay with tubulin, the tubulin polymerization entry was “effectively inhibit”. The “growth of four different human lymphoma cell lines” value in [1] is recorded as “effectively inhibit”.
Dolastatin 15: the tubulin polymerization result with tubulin was “effectively inhibit”. For the same substance, the “growth of four different human lymphoma cell lines” value in assay [1] is “effectively inhibit”. Further, the “growth of P388 lymphocytic leukemia (PS system) cell line” value in assay [2] is given as “inhibits the growth”.
Usually TGI stands for the concentration at which net growth stops. A higher TGI goes with less potent growth arrest. As to “Dov-Val-Dil-Dap 1-bicyclo[3.3.0]octane amide [Compound 13b]”, the GI-50 in the assay on A498 (renal cancer) stood at 0.002 µg/mL; in assay [3] it was 0.00047 µg/mL; in the assay on KM20L2 (colon cancer), 0.00036 µg/mL; with SK-MEL-5 (melanoma), 0.0007 µg/mL. The LC-50 (in the assay on A498 (renal cancer); in assay [3]; in the assay with KM20L2 (colon cancer); with SK-MEL-5 (melanoma)) was over 0.01 µg/mL each time. In addition, the TGI (in the assay with A498 (renal cancer); in assay [3]; with KM20L2 (colon cancer); in the assay with SK-MEL-5 (melanoma)) was over 10 ng/mL throughout. Further, the ED50 in assay [4] is 2.2 ng/mL.
As for “Dov-Val-Dil-Dap 2-[p-aminophenyl]ethylamide [Compound 29d]”, the GI-50 is 5e-05 µg/mL in the assay with OVCAR-3 (ovarian cancer); 0.00053 µg/mL in assay [5]; over 0.01 µg/mL in the assay on A498 (renal cancer); 0.00013 µg/mL in assay [3]; 4.9e-05 µg/mL with KM20L2 (colon cancer); 0.00023 µg/mL with SK-MEL-5 (melanoma). Moreover, the TGI in the assay on OVCAR-3 (ovarian cancer) is 0.79 ng/mL; in assay [3] it was 0.87 ng/mL; with KM20L2 (colon cancer) it was over 10 ng/mL. The ED50 in assay [4] amounted to 0.338 ng/mL.
As for “Dov-Val-Dil-Dap-Met 1-(bicyclo[3.3.0]octane) Amide [Compound 12d]”, the GI-50 in the assay with OVCAR-3 (ovarian cancer) was 0.00031 µg/mL; in assay [5] it was 0.00047 µg/mL; with A498 (renal cancer), 0.00048 µg/mL; in [3], 0.00029 µg/mL; in the assay on KM20L2 (colon cancer), 0.0003 µg/mL; in the assay on SK-MEL-5 (melanoma), 0.00044 µg/mL. Moreover, the LC-50 (in the assay on OVCAR-3 (ovarian cancer); in assay [5]; in the assay with A498 (renal cancer); in assay [3]; in the assay on KM20L2 (colon cancer); in the assay with SK-MEL-5 (melanoma)) was over 0.01 µg/mL each time. For the same substance, the TGI in the assay on OVCAR-3 (ovarian cancer) was over 10 ng/mL; in assay [5] it was over 10 ng/mL; with A498 (renal cancer) it was over 10 ng/mL; in assay [3] it was 4 ng/mL; in the assay with KM20L2 (colon cancer) it was 0.9 ng/mL; in the assay with SK-MEL-5 (melanoma) it was over 10 ng/mL.
As to “Dov-Val-Dil-Dap-Phe Amide [Compound 28d]”, the GI-50 in the assay on OVCAR-3 (ovarian cancer) was 3e-07 µg/mL; in assay [5], 6.1e-07 µg/mL; in the assay with A498 (renal cancer), 3.4e-06 µg/mL; in assay [3] it was 4.1e-07 µg/mL; with KM20L2 (colon cancer), 2e-07 µg/mL; with SK-MEL-5 (melanoma) it was 5.6e-07 µg/mL. The LC-50 (in the assay on OVCAR-3 (ovarian cancer); in assay [5]; with A498 (renal cancer); in [3]; in the assay on KM20L2 (colon cancer); with SK-MEL-5 (melanoma)) was over 0.0001 µg/mL throughout. Also, the TGI with OVCAR-3 (ovarian cancer) was 0.011 ng/mL; in [5] it was over 0.1 ng/mL; with A498 (renal cancer), over 0.1 ng/mL; in assay [3], over 0.1 ng/mL; in the assay on KM20L2 (colon cancer), 0.0041 ng/mL; in the assay with SK-MEL-5 (melanoma), over 0.1 ng/mL. The ED50 in assay [4] turned out to be 0.00255 ng/mL.

Values taken from US6323315A, “Dolastatin peptides” (priority 2000, dated 2001).
